Measured values taken from patent US10442796B2, “2,3,5-substituted thiophene compound as protein kinase inhibitor” (KOREA INSTITUTE OF SCIENCE AND TECHNOLOGY, priority 2016, dated 2019).
Residue numbers refer to the chain shown, from its start. Structures can show the parent of a compound that is named as a salt.

Assays:
[1] = target: T1, FLT3-ITD-F691L Ba/F3 cells (Homo sapiens, UniProt P36888, F691L, cells depend on it, form not given); assay: Growth inhibitory activity against Ba/F3 cell line; format: cell-based; settings: Ba/F3 expressing FLT3-ITD-F691L; 72 hours; cell titer glo; read-out: IC50 (uM) FLT3-ITD-F691L
T1 sequence (P36888 1-993 F691L): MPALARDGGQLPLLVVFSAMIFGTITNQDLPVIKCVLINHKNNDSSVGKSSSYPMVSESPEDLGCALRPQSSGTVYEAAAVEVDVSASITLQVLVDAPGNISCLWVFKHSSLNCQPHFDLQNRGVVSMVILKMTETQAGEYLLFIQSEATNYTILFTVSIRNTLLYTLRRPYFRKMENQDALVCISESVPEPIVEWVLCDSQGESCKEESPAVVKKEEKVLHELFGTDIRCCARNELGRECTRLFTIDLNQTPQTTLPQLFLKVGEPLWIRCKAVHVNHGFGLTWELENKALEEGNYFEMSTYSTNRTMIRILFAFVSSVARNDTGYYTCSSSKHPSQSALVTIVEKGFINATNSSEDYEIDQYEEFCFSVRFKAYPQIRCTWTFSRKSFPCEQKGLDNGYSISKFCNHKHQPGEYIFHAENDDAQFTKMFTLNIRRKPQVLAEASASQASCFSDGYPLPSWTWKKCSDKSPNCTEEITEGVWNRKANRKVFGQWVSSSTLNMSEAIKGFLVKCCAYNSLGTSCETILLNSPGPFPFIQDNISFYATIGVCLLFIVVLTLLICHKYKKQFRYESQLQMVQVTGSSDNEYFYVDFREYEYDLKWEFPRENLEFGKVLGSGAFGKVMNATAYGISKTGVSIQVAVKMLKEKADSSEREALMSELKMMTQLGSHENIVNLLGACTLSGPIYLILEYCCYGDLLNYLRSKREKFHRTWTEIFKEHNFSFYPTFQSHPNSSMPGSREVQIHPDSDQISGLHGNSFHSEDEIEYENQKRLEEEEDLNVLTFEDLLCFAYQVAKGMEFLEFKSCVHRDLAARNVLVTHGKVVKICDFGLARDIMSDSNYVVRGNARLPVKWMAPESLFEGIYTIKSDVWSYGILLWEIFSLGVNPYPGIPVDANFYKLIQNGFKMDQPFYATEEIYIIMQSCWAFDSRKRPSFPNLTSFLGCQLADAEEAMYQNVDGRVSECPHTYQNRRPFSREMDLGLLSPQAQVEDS
Experimental: (§1) A Ba/F3 cell line expressing an FLT3 mutation gene was cultured in a culture solution including 90% RPMI, 10% FBS, and an antibiotic (Welgene). 100 uL of the Ba/F3 cell line was put into each of 5,000 wells of a TC-treated 96 well plate (SPL), and then 1 uL of a test compound diluted in dimethylsulfoxide (diluted for each 3 paint from a concentration of 1 mM, total 10 concentrations) was each injected thereinto. Thereafter, the resulting cell lines were incubated in a cell culture incubator for 72 hours. 50 uL of a cell titer glo (Promega) solution was added thereto, the resulting mixture was stored at room temperature for 10 minutes, and then the light emission intensity was measured by using a reader (Envision, PerkinElmer). The light emission intensity was shown as a graph for each final concentration of the test compound, and the GI50 value was obtained by using a Prism 5.0 (GraphPad) software.

FLT3-D835Y Ba/F3 cells = target: T2, FLT3-D835Y Ba/F3 cells (Homo sapiens, UniProt P36888, D835Y, cells depend on it); assay: Growth inhibitory activity against Ba/F3 cell line; format: cell-based; settings: Ba/F3 expressing FLT3-D835Y; 72 hours; cell titer glo; read-out: IC50 (uM) FLT3-D835Y
T2 sequence (P36888 1-993 D835Y): T1 sequence (P36888 1-993 F691L) with L691F, D835Y
Experimental: as §1

Row | Compound | GI50 [1] | GI50 (FLT3-D835Y Ba/F3 cells)
1 | NC(=O)Nc1cc(C#Cc2ccc(Cl)cc2)sc1C(=O)N[C@H]1CCCNC1 [Example 8, (S)-5-((4-chlorophenyl)ethynyl)-N-(piperidin-3-yl)-3-ureidothiophene-2-carboxamide] | 0.013 µM | 0.01 µM
2 | NC(=O)Nc1cc(C#Cc2cccc([N+](=O)[O-])c2)sc1C(=O)N[C@H]1CCCNC1 [Example 5, (S)-5-((3-nitrophenyl)ethynyl)-N-(piperidin-3-yl)-3-ureidothiophene-2-carboxamide] | 0.062 µM | 0.039 µM
3 | NC(=O)Nc1cc(C#Cc2ccc(C(F)(F)F)cc2)sc1C(=O)N[C@H]1CCCNC1 [Example 16, ((S)—N-(piperidin-3-yl)-5-((4-(trifluoromethyl)phenyl)ethynyl)-3-ureidothiophene-2-carboxamide trifluoroacetate] | 0.335 µM | 0.197 µM
4 | NC(=O)Nc1cc(C#Cc2ccccn2)sc1C(=O)N[C@H]1CCCNC1 [Example 10, (S)—N-(piperidin-3-yl)-5-(pyridin-2-ylethynyl)-3-ureidothiophene-2-carboxamide] | 0.066 µM | 0.041 µM
5 | NC(=O)Nc1cc(C#Cc2ccccc2)sc1C(=O)N[C@H]1CCCNC1 [Example 2, (S)-5-(phenylethynyl)-N-(piperidin-3-yl)-3-ureidothiophene-2-carboxamide] | 0.004 µM | 0.002 µM
6 | NC(=O)Nc1cc(C#Cc2ccc(F)nc2)sc1C(=O)N[C@H]1CCCNC1 [Example 13, (S)-5-((6-fluoropyridin-3-yl)ethynyl)-N-(piperidin-3-yl)-3-ureidothiophene-2-carboxamide] | 0.022 µM | 0.014 µM
7 | NC(=O)Nc1cc(C#Cc2n[nH]c3ccccc23)sc1C(=O)N[C@H]1CCCNC1 [Example 12, (S)-5-((1H-indazol-3-yl)ethynyl)-N-(piperidin-3-yl)-3-ureidothiophene-2-carboxamide] | 0.487 µM | 0.289 µM
8 | NC(=O)Nc1cc(C#Cc2cccnc2)sc1C(=O)N[C@H]1CCCNC1 [Example 3, (S)—N-(piperidin-3-yl)-5-(pyridin-3-ylethynyl)-3-ureidothiophene-2-carboxamide] | 0.099 µM | 0.05 µM
9 | NC(=O)Nc1cc(C#Cc2ccncc2)sc1C(=O)N[C@H]1CCCNC1 [Example 4, (S)—N-(piperidin-3-yl)-5-(pyridin-4-ylethynyl)-3-ureidothiophene-2-carboxamide] | 1.1 µM | 0.408 µM
10 | COC(=O)c1ccc(C#Cc2cc(NC(N)=O)c(C(=O)N[C@H]3CCCNC3)s2)cc1 [Example 18, methyl (S)-4-((5-(piperidin-3-ylcarbamoyl)-4-ureidothiophen-2-yl)ethynyl)benzoate trifluoroacetate] | 0.023 µM | 0.011 µM
11 | Cn1cc(C#Cc2cc(NC(N)=O)c(C(=O)N[C@H]3CCCNC3)s2)cn1 [Example 15, (S)-5-((l-methyl-1H-pyrazol-4-yl)ethynyl)-N-(piperidin-3-yl)-3-ureidothiophene-2-carboxamide trifluoroacetate] | 0.216 µM | 0.268 µM
12 | NC(=O)Nc1cc(C#Cc2ccc(F)c(F)c2)sc1C(=O)N[C@H]1CCCNC1 [Example 14, (S)-5-((3,4-difluorophenyl)ethynyl)-N-(piperidin-3-yl)-3-ureidothiophene-2-carboxamide] | 0.009 µM | 0.005 µM

Second part, the compound after the results:

Row | GI50 [1] | GI50 (FLT3-D835Y Ba/F3 cells) | Compound
13 | 0.174 µM | 0.228 µM | NC(=O)Nc1cc(C#Cc2cccc(F)c2)sc1C(=O)N[C@H]1CCCCNC1 [Example 50, (S)—N-(azepan-3-yl)-5-((3-fluorophenyl)ethynyl)-3-ureidothiophene-2-carboxamide]
14 | 0.645 µM | 0.533 µM | CS(=O)(=O)N1CCC(n2cc(C#Cc3cc(NC(N)=O)c(C(=O)N[C@H]4CCCCNC4)s3)cn2)CC1 [Example 47, (S)—N-(azepan-3-yl)-5-((1-(1-(methylsulfonyl)piperidin-4-yl)-1H-pyrazol-4-yl)ethynyl)-3-ureidothiophene-2-carboxamide trifluoroacetate]
15 | 19.1 µM | 34 µM | Cn1cc(C#Cc2cc(NC(N)=O)c(C(=O)NC3CCNC3)s2)cn1 (stereo not shown) [Example 39, 5-((1-methyl-1H-pyrazol-4-yl)ethynyl)-N-(pyrrolidin-3-yl)-3-ureidothiophene-2-carboxamide trifluoroacetate]
16 | 0.2 µM | 0.3 µM | CCn1cc(C#Cc2cc(NC(N)=O)c(C(=O)N[C@H]3CCCCNC3)s2)cn1 [Example 43, (S)—N-(azepan-3-yl)-5-((l-ethyl-1H-pyrazol-4-yl)ethynyl)-3-ureidothiophene-2-carboxamide trifluoroacetate]
17 | 0.616 µM | 0.437 µM | CC(=O)N1CCC(n2cc(C#Cc3cc(NC(N)=O)c(C(=O)N[C@H]4CCCCNC4)s3)cn2)CC1 [Example 49]
18 | 0.214 µM | 0.216 µM | CC(C)n1cc(C#Cc2cc(NC(N)=O)c(C(=O)N[C@H]3CCCCNC3)s2)cn1 [Example 44, (S)—N-(azepan-3-yl)-5-((1-isopropyl-1H-pyrazol-4-yl)ethynyl)-3-ureidothiophene-2-carboxamide trifluoroacetate]
19 | 0.083 µM | 0.067 µM | NC(=O)Nc1cc(C#Cc2ccsc2)sc1C(=O)N[C@H]1CCCCNC1 [Example 48, (S)—N-(azepan-3-yl)-5-(thiophen-3-ylethynyl)-3-ureidothiophene-2-carboxamide trifluoroacetate]
20 | 1.39 µM | 1.61 µM | NC(=O)Nc1cc(CCc2cccc(F)c2)sc1C(=O)N[C@H]1CCCNC1 [Example 53]
21 | 0.058 µM | 0.039 µM | Cc1ccc(C#Cc2cc(NC(N)=O)c(C(=O)N[C@H]3CCCNC3)s2)cc1 [Example 24, (S)—N-(piperidin-3-yl)-5-(p-tolylethynyl)-3-ureidothiophene-2-carboxamide]
22 | 0.078 µM | 0.092 µM | Cn1cc(C#Cc2cc(NC(N)=O)c(C(=O)N[C@H]3CCCCNC3)s2)cn1 [Example 41, (S)—N-(azepan-3-yl)-5-((1-methyl-1H-pyrazol-4-yl)ethynyl)-3-ureidothiophene-2-carboxamide trifluoroacetate]
23 | 0.087 µM | 0.041 µM | NC(=O)Nc1cc(C#Cc2ccnc(F)c2)sc1C(=O)N[C@H]1CCCNC1 [Example 21, (S)-5-((2-fluoropyridin-4-yl)ethynyl)-N-(piperidin-3-yl)-3-ureidothiophene-2-carboxamide]
